# Biological target: T1, α-Syn (Homo sapiens, UniProt P37840)
# T1 construct: made in house
# Assay: Cross-seeding of α-Syn by L20 fibrils
# Conditions: matured fibrils 5% v/v with 400 μM α-Syn in PBS pH 7.4, 37 °C, vigorous stirring, 30 d; Thio T
# Description: Although the seeding of amyloids requires a high amino acid sequence similarity between the protein/peptide of the seed and its soluble host counterpart, cross-seeding between different protein species have been documented. To test whether amyloids of long-acting GnRH analogs are able to cross-seed with a protein associated with Parkinson disease, α-Syn, a seeding reaction was done with a small amount of matured L20 fibrils (5% v/v) in the presence of α-Syn (95% v/v; 400 μM concentration of monomeric solution [pH 7.4] in PBS). The fibril growth of the mixture as well as α-Syn in PBS as control were followed over a period of 30 d by Thio T binding.
# A total of 5 μl of matured L20 fibril solution at a concentration of 1 mg/ml in 5% D-mannitol, 0.01% sodium azide was mixed with 95 μl of freshly prepared GnRH solution in the same solution condition followed by incubation at room temperature without stirring. […] Once a week, a 10-μl aliquot was diluted into 500 μl water containing 5% D-mannitol, 0.01% sodium azide, and 10 μl of 1 mM Thio T to measure the Thio T fluorescence as described above. […] The protein concentration of the supernatant was measured by UV absorbance with ɛ280 of 6,500 M^−1cm^−1. […] The formation of amyloid was monitored regularly for the mixture (α-Syn+L20) and α-Syn by Thio T binding.
substance,measurement,value
Ac-DNal-DCpa-Agl(Nic)-Ser-Aph(Ac)-DAph(Ac)-Leu-ILys-Pro-DAla-NH2 [L20],cross-seeding of α-Syn,did not significantly influence the aggregation of α-Syn
